“And” between values parts separate entries of the source, which are not always exact repeats. Equal entries are not always repeated. Toxic doses and inconclusive results are not listed.

The subject of this assay is CD2F1 mice, L1210 leukemia ip, survival T/C. Description: NCI In Vivo Anticancer Drug Screen. Data for tumor model L1210 Leukemia (intraperitoneal) in CD2F1 (CDF1) mice. To be noted: higher = longer survival. The gist of the method: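 Implant tumor; dose compound or vehicle; measure endpoint in both groups; report treated divided by control.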
Setting [1] is: endpoint: mean survival time, dose: 12.5 mg/kg/injection, schedule: Q01DX009 (ip), vehicle: Klucel (hydroxypropylcellulose) (HPC).
[2] abbreviates: endpoint: mean survival time, dose: 50.0 mg/kg/injection, schedule: Q01DX009 (ip), vehicle: Klucel (hydroxypropylcellulose) (HPC).
Where [3] appears, read: endpoint: mean survival time, dose: 25.0 mg/kg/injection, schedule: Q01DX009 (ip), vehicle: saline with Tween-80.
Where [4] appears, read: endpoint: mean survival time, dose: 50.0 mg/kg/injection, schedule: Q01DX009 (ip), vehicle: saline with Tween-80.
[5] abbreviates: endpoint: mean survival time, dose: 200.0 mg/kg/injection, schedule: Q01DX009 (ip), vehicle: saline with Tween-80.
Where [6] appears, read: endpoint: mean survival time, dose: 100.0 mg/kg/injection, schedule: Q04DX003 (ip), vehicle: saline with Tween-80.
[7] abbreviates: endpoint: mean survival time, dose: 6.25 mg/kg/injection, schedule: Q01DX009 (ip), vehicle: saline with Tween-80.
The mark [8] stands for this setting: endpoint: mean survival time, dose: 12.5 mg/kg/injection, schedule: Q01DX009 (ip), vehicle: saline with Tween-80.
[9] abbreviates: endpoint: mean survival time, dose: 100.0 mg/kg/injection, schedule: Q01DX009 (ip), vehicle: saline with Tween-80.
Where [10] appears, read: endpoint: mean survival time, dose: 200.0 mg/kg/injection, schedule: Q04DX003 (ip), vehicle: saline with Tween-80.
Setting [11] is: endpoint: mean survival time, dose: 400.0 mg/kg/injection, schedule: Q04DX003 (ip), vehicle: saline with Tween-80.
The mark [12] stands for this setting: endpoint: mean survival time, dose: 100.0 mg/kg/injection, schedule: Q01DX001 (ip), vehicle: saline with Tween-80.
The mark [13] stands for this setting: endpoint: mean survival time, dose: 200.0 mg/kg/injection, schedule: Q01DX001 (ip), vehicle: saline with Tween-80.

For `CCOC(=O)C1C(=O)N(Cc2ccccc2)C(=O)N1C` (stereo unspecified), the T/C (endpoint: mean survival time, dose: 12.5 mg/kg/injection, schedule: Q01DX009 (ip), vehicle: other) is 98 % of control; the T/C (endpoint: mean survival time, dose: 25.0 mg/kg/injection, schedule: Q01DX009 (ip), vehicle: other) was 104 % of control; the T/C (endpoint: mean survival time, dose: 50.0 mg/kg/injection, schedule: Q01DX009 (ip), vehicle: other) was 100 % of control; the T/C (endpoint: mean survival time, dose: 100.0 mg/kg/injection, schedule: Q01DX009 (ip), vehicle: other) was 100 % of control; the T/C (endpoint: mean survival time, dose: 200.0 mg/kg/injection, schedule: Q01DX009 (ip), vehicle: other) was 100 % of control.
As for `O=Cc1ccccc1`, the T/C is 101 % of control under setting [1]; 95 % of control and 102 % of control (endpoint: mean survival time, dose: 25.0 mg/kg/injection, schedule: Q01DX009 (ip), vehicle: Klucel (hydroxypropylcellulose) (HPC)); 96 % of control and 100 % of control under setting [2]; 97 % of control and 102 % of control (endpoint: mean survival time, dose: 100.0 mg/kg/injection, schedule: Q01DX009 (ip), vehicle: Klucel (hydroxypropylcellulose) (HPC)); 97 % of control and 105 % of control (endpoint: mean survival time, dose: 200.0 mg/kg/injection, schedule: Q01DX009 (ip), vehicle: Klucel (hydroxypropylcellulose) (HPC)); 92 % of control and 93 % of control (endpoint: mean survival time, dose: 400.0 mg/kg/injection, schedule: Q01DX009 (ip), vehicle: Klucel (hydroxypropylcellulose) (HPC)).
Take `CN(C)N=Nc1c(F)cc(F)cc1F`: the T/C is 98 % of control under setting [3], 102 % of control under setting [4] and 90 % of control under setting [5].
With `CN(C)CCNC(=O)C(c1ccccc1)c1ccccc1`, the T/C under setting [6] is 104 % of control.
Take `COc1ccc2nc3cc(Cl)ccc3c(NCCNCCNCCNc3c4ccc(Cl)cc4nc4ccc(OC)cc34)c2c1`: the T/C (endpoint: mean survival time, dose: 3.12 mg/kg/injection, schedule: Q01DX009 (ip), vehicle: Klucel (hydroxypropylcellulose) (HPC)) is 113 % of control; the T/C (endpoint: mean survival time, dose: 3.12 mg/kg/injection, schedule: Q01DX009 (ip), vehicle: saline with Tween-80) was 96 % of control; the T/C (endpoint: mean survival time, dose: 6.25 mg/kg/injection, schedule: Q01DX009 (ip), vehicle: Klucel (hydroxypropylcellulose) (HPC)) was 116 % of control; the T/C under setting [7] is 96 % of control; the T/C under setting [1] is 101 % of control; the T/C under setting [8] is 102 % of control. The T/C was 103 % of control under setting [3], 90 % of control under setting [2], 106 % of control under setting [4] and 106 % of control under setting [9].
Turning to `CCOC(=O)NCCB(O)O`, the T/C runs as follows: (endpoint: mean survival time, dose: 100.0 mg/kg/injection, schedule: Q04DX002 (ip), vehicle: saline) 100 % of control; (endpoint: mean survival time, dose: 200.0 mg/kg/injection, schedule: Q04DX002 (ip), vehicle: saline) 88 % of control; (endpoint: mean survival time, dose: 400.0 mg/kg/injection, schedule: Q04DX002 (ip), vehicle: saline) 95 % of control.
As for `CCOC(=O)C(c1ccccc1)P(=O)(OCC)OCC` (stereo unspecified), the T/C runs as follows: (endpoint: mean survival time, dose: 100.0 mg/kg/injection, schedule: Q04DX002 (ip), vehicle: saline with Tween-80) 111 % of control; (endpoint: mean survival time, dose: 200.0 mg/kg/injection, schedule: Q04DX002 (ip), vehicle: saline with Tween-80) 100 % of control; (endpoint: mean survival time, dose: 400.0 mg/kg/injection, schedule: Q04DX002 (ip), vehicle: saline with Tween-80) 100 % of control.
Regarding `C/C(=C\Cl)CO`, the T/C runs as follows: (endpoint: mean survival time, dose: 50.0 mg/kg/injection, schedule: Q01DX009 (ip), vehicle: acetone) 100 % of control; (endpoint: mean survival time, dose: 100.0 mg/kg/injection, schedule: Q01DX009 (ip), vehicle: acetone) 106 % of control.
Regarding `O=C(NC(=S)Nc1ccccc1C(=O)O)c1ccccc1`, the T/C reads like this: (endpoint: mean survival time, dose: 66.0 mg/kg/injection, schedule: Q01DX009 (ip), vehicle: saline sonified) 103 % of control; (endpoint: mean survival time, dose: 100.0 mg/kg/injection, schedule: Q01DX009 (ip), vehicle: saline sonified) 103 % of control; (endpoint: mean survival time, dose: 150.0 mg/kg/injection, schedule: Q01DX009 (ip), vehicle: saline sonified) 103 % of control.
Regarding `O=NN(CCCl)C(=O)NC1CCC(=O)NC1=O` (stereo unspecified), the T/C is, setting by setting: (endpoint: median survival time, dose: 15.0 mg/kg/injection, schedule: Q01DX001 (ip), vehicle: saline with Tween-80) 344 % of control; (endpoint: median survival time, dose: 20.0 mg/kg/injection, schedule: Q01DX001 (ip), vehicle: saline with Tween-80) 344 % of control; (endpoint: median survival time, dose: 25.0 mg/kg/injection, schedule: Q01DX001 (ip), vehicle: saline with Tween-80) 344 % of control; (endpoint: median survival time, dose: 30.0 mg/kg/injection, schedule: Q01DX001 (ip), vehicle: saline with Tween-80) 344 % of control.
Take `CS(=O)(=O)Nc1ccc(C(=O)CCN2CCCCCC2)cc1`: the T/C by setting is: (endpoint: median survival time, dose: 25.0 mg/kg/injection, schedule: Q01DX009 (ip), vehicle: saline) 98 % of control; (endpoint: median survival time, dose: 50.0 mg/kg/injection, schedule: Q01DX009 (ip), vehicle: saline) 101 % of control; (endpoint: median survival time, dose: 100.0 mg/kg/injection, schedule: Q01DX009 (ip), vehicle: saline) 98 % of control.
For `COc1ccc(C2C(C(C)=O)=C(C)NC(C)=C2C(C)=O)cc1`, the T/C reads like this: under setting [6], 88 % of control; under setting [10], 87 % of control.
Consider `N#CSCc1c(Cl)c(Cl)c(CSC#N)c(Cl)c1Cl`, for which the T/C (endpoint: mean survival time, dose: 75.0 mg/kg/injection, schedule: Q04DX003 (ip), vehicle: saline) was 95 % of control; the T/C (endpoint: mean survival time, dose: 150.0 mg/kg/injection, schedule: Q04DX003 (ip), vehicle: saline) is 98 % of control; the T/C (endpoint: mean survival time, dose: 300.0 mg/kg/injection, schedule: Q04DX003 (ip), vehicle: saline) was 98 % of control.
With `C=CCc1ccc(OC(=O)Nc2ccc(C)c([N+](=O)[O-])c2)c(OC)c1`, the T/C under setting [8] was 98 % of control, the T/C under setting [3] is 103 % of control, the T/C under setting [4] was 98 % of control and the T/C under setting [5] was 88 % of control.
Take `CCOC(=O)c1c(N)sc2c1CCN(Cc1ccccc1)C2`: the T/C by setting is: under setting [6], 98 % of control; under setting [10], 93 % of control; under setting [11], 88 % of control.
As for `O=C1C=CC(=O)C(SCCC(=O)O)=C1`, the T/C reads like this: (endpoint: mean survival time, dose: 50.0 mg/kg/injection, schedule: Q04DX003 (ip), vehicle: saline with Tween-80) 94 % of control; under setting [6], 96 % of control; under setting [10], 111 % of control.
As for `CC(=O)OC1CCC2(C)C(=CCC3C2CCC2(C)C(OC(=O)c4ccccc4)CCC32)C1` (stereo unspecified), the T/C is, setting by setting: (endpoint: mean survival time, dose: 100.0 mg/kg/injection, schedule: Q04DX003 (ip), vehicle: acetone) 104 % of control; (endpoint: mean survival time, dose: 200.0 mg/kg/injection, schedule: Q04DX003 (ip), vehicle: acetone) 90 % of control; (endpoint: mean survival time, dose: 400.0 mg/kg/injection, schedule: Q04DX003 (ip), vehicle: acetone) 86 % of control.
As to `Nc1nc2c(ncn2CCCc2ccccc2)c(=O)[nH]1`, the T/C was 94 % of control under setting [12] and 94 % of control under setting [13].
Consider `COc1c(Cl)c(=O)oc2ccc(Cl)cc12`, for which the T/C is 93 % of control under setting [12]; 90 % of control under setting [13]; 88 % of control (endpoint: mean survival time, dose: 400.0 mg/kg/injection, schedule: Q01DX001 (ip), vehicle: saline with Tween-80).
Turning to `O=C(NCc1ccco1)C1COc2ccccc2O1` (stereo unspecified), the T/C was 103 % of control (endpoint: median survival time, dose: 25.0 mg/kg/injection, schedule: Q01DX009 (ip), vehicle: Klucel (hydroxypropylcellulose) (HPC)); 101 % of control (endpoint: median survival time, dose: 50.0 mg/kg/injection, schedule: Q01DX009 (ip), vehicle: Klucel (hydroxypropylcellulose) (HPC)); 103 % of control (endpoint: median survival time, dose: 100.0 mg/kg/injection, schedule: Q01DX009 (ip), vehicle: Klucel (hydroxypropylcellulose) (HPC)).
Turning to `S=C1SCCN1c1ccccc1`, the T/C runs as follows: under setting [9], 96 % of control; under setting [6], 103 % of control; under setting [5], 96 % of control; under setting [10], 101 % of control; (endpoint: mean survival time, dose: 400.0 mg/kg/injection, schedule: Q01DX009 (ip), vehicle: saline with Tween-80) 95 % of control; under setting [11], 100 % of control.
In the case of `Cc1cc(NCCN(C(C)C)C(C)C)nc(Nc2nc3cc(Cl)c(Cl)cc3[nH]2)n1`, the T/C runs as follows: under setting [7], 100 % of control; under setting [8], 105 % of control; under setting [3], 92 % of control; under setting [6], 87 % of control.
For `O=C(CCCl)c1ccc2c(c1)OCO2`, the T/C (endpoint: mean survival time, dose: 100.0 mg/kg/injection, schedule: Q01DX001 (ip), vehicle: saline) is 104 % of control and the T/C (endpoint: mean survival time, dose: 200.0 mg/kg/injection, schedule: Q01DX001 (ip), vehicle: saline) was 96 % of control.

(Values after PubChem BioAssay AID256 (DTP/NCI, 2004).)
